Laboratory results reported in patent publication US9970938B2, “Use of BUBR1 as a biomarker of drug response to furazanobenzimidazoles” (Basilea Pharmaceutica AG, priority 2011, dated 2018).

Legend:
Assay type in all cases: cell-based, human
SKOV3 resistant 1 = assay: Crystal Violet assay of BAL27862-resistant cell line versus parental line
Description: (§1) BAL27862-resistant sublines of human non-small cell lung cancer (H460 ATCC reference HTB-177; A549 ATCC reference CCL-185), ovarian cancer (SKOV3 ATCC reference HTB-77) lines were generated by long-term selection in complete cell culture medium (RPMI-1640 containing 10% FCS; Sigma-Aldrich) by stepwise increasing concentrations of BAL27862. […] The resistant sublines were expanded at the highest tolerated BAL27862 concentration and subsequently frozen and stored in liquid nitrogen.
(§2) After medium was removed, cells were fixed and stained by adding 50 μl Crystal Violet Staining (0.2% Crystal Violet in 50% Methanol) per well. Plates were incubated for 1 hour at room temperature. Subsequently the stain was decanted and plates were washed 4 times with double-distilled water. Plates were air-dried for several hours. Stain was dissolved by adding 100 μl buffer (0.1 M Tris pH 7.5, 0.2% SDS, 20% Ethanol) per well and shaking the plates. Absorbance at 590 nm was measured using a SpectraMax M2e plate reader (Molecular Devices). Anti-proliferative IC50 values were calculated from concentration response curves using GraphPad Prism software. Resistance factors were calculated as a ratio of BAL27862 IC50 in the resistant line variant versus the IC50 in the parental line.

SKOV3 resistant 2 = assay: as above
Description: as §1, §2

A549 = assay: as above
Description: as §1, §2

H460 = assay: as above
Description: as §1, §2

[1] = tested on: HeLa cervical cancer cells; assay: Immunofluorescent staining of microtubules in cultured cells; conditions: 24 hours, 50 nM
Description: (§3) A549 human non-small cell lung cancer (NSCLC, ATCC reference number CCL-185) cells, HeLa cervical cancer cells (ATCC reference number CCL-2) and SKBR3 breast carcinoma cells (ATCC reference number HTB-30) were seeded at densities of 50% on round microscope coverslips and cultured for 24 hours in RPMI-1640 containing 10% FCS (also referred to as FBS) at 37° C., 5% CO2. Compounds to be tested were dissolved in DMSO. The cell culture medium was replaced with medium containing the diluted compound(s) (paclitaxel, vinblastine, colchicine and nocodazole were purchased from Sigma-Aldrich) or vehicle. After treatment, coverslips were washed and cells were fixed in methanol/acetone (1:1) for 5 minutes at room temperature and subsequently incubated in blocking buffer (0.5% BSA and 0.1% TX-100 in PBS) for 30 minutes at room temperature. Specimens were then incubated with anti-alpha-tubulin antibody (Sigma, 1:2000) for 1 hour at room temperature in blocking buffer. After several washing steps cells were incubated with AlexaFluor-488 goat-anti-mouse IgG (Molecular Probes, 1:3000) for 1 hour at room temperature followed by several washing steps with blocking buffer. Specimens were then mounted with ProLong Gold antifade (Molecular Probes), sealed with nail polish and examined with a Leica immunofluorescence microscope. Images were captured with a cooled CCD-camera and processed by ImageJ software.

A549 NSCLC cells = assay: as above
Description: as §3

[2] = tested on: SKBR3 breast cancer cells; assay: as above; conditions: 24 hours, 50 nM
Description: as §3

LXFA629 = assay: Colony outgrowth assay, patient-derived tumour xenograft cells; set-up: key: S: BAL27862-sensitive tumour cells have IC70 values in the low nanomolar range; R: BAL27862-resistant tumour cells are defined by IC70 values >600 nanomolar; conditions: Lung
Description: (§4) Single cell suspensions of patient-derived tumour xenografts (maintained in nude mice) were prepared. For colony outgrowth assays, cells were plated in soft agar in 24-well plates according to the assay introduced by Hamburger & Salmon (Primary bioassay of human tumour stem cells, Science, 1977, 197:461-463). 2.0E+04-6.0E+04 cells in 0.2 mL medium containing 0.4% agar were plated out on a bottom layer of 0.75% agar. Test compounds were applied in 0.2 mL culture medium. Every 24-well plate contained untreated controls and samples in triplicates. Cultures were incubated at 37° C. and 7.5% CO2 for 5-28 days. 24 hours prior to analysis, vital colonies were stained with a solution of metabolizable tetrazolium salt (Alley M C et al, Life Sci. 1982, 31:3071-3078) and were counted with an automatic image analysis system (Omnicon 3600, Biosys GmbH).
(§5) Relative drug effects were expressed by the ratio of the mean number of colonies in the treated wells and the control wells. IC70-values were determined by plotting compound concentrations versus relative colony counts.

GXF251 = assay: as above; set-up: key: S: BAL27862-sensitive tumour cells have IC70 values in the low nanomolar range; R: BAL27862-resistant tumour cells are defined by IC70 values >600 nanomolar; conditions: Gastric
Description: as §4, §5

GXF97 = assay: as above; set-up: key: S: BAL27862-sensitive tumour cells have IC70 values in the low nanomolar range; R: BAL27862-resistant tumour cells are defined by IC70 values >600 nanomolar; conditions: Gastric
Description: as §4, §5

HeLa cells = assay: BUBR1 siRNA pool, tumour cell phenotype and cell number by immunostaining; conditions: 50 nM BAL27862, 24 hours, 48 hours after siRNA
Description: In order to show BUBR1 is a biomarker of resistance, siRNA experiments were performed. For siRNA experiments to assess effects on tumour cell phenotype and numbers (FIG. 8), HeLa (ATCC reference CCL-2) cervical cancer cells were cultured at 37° C. and 5% CO2 in DMEM with 10% FCS (Invitrogen). 1000 HeLa cells per well were seeded into black 384 well multititer plates (BD Falcon). Cells were reversely transfected with 20 nM non-targeting control siRNA (ON-Target-plus non-targeting pool D001810, Dharmacon) or a mixture of four BUBR1 siRNAs (ON-Target-plus Smartpool L-004101, Dharmacon, see sequence information below) using Dharmafect1 (Dharmacon, Thermo) transfection reagent. 48 hours after cell seeding and siRNA transfection, one replicate pair of siRNA clones was treated with BAL27862 (50 nM, 0.1% DMSO) and another replicate pair with control solution (0.1% DMSO) for 24 hours. […] Based on the immunostaining, the morphology of treated cells was analysed using a multiparametric approach (BD Pathway 855 fluorescence microscope; 20× objective) with appropriate software. The number of cells per well was also calculated based on Hoe33342 staining of nuclei. […]

For `N#CCCNc1nonc1-c1nc2ccccc2n1CC(=O)c1ccc(N)cc1` [BAL27862, 3-(4-{1-[2-(4-Amino-phenyl)-2-oxo-ethyl]-1H-benzoimidazol-2-yl}-furazan-3-ylamino)-propionitrile], which “resistance factors versus parental lines (based on IC50 determinations)” value (“resistance factors versus parental lines” below) (SKOV3 resistant 1) is on record?
The value was 7.6 fold.

And the “resistance factors versus parental lines” value (SKOV3 resistant 2)?
The value was 11.6 fold.

And the “resistance factors versus parental lines” value (A549)?
The value was 3.0 fold.

And the “resistance factors versus parental lines” value (H460)?
The value was 5.3 fold.

What about the “microtubule phenotype of mitotic or G2/M arrested cells” value [1] of the same compound?
The value was “highly reproducible and distinct microtubule phenotype”.

What about the “microtubule phenotype of mitotic or G2/M arrested cells” value (A549 NSCLC cells; 24 hours treatment, anti-alpha-tubulin staining) of the same compound?
Its value is “highly reproducible and distinct microtubule phenotype”.

What about the “microtubule phenotype, BAL27862 added for the last 4 hours of 24 hours vinblastine, colchicine, paclitaxel or nocodazole treatment” value (A549 NSCLC cells; combination) of the same compound?
The value was “disruption of the microtubule structures”.

And the “microtubule phenotype of mitotic or G2/M arrested cells” value [2]?
Its value is “highly reproducible and distinct microtubule phenotype”.

What about the “Sensitive (S)/Resistant (R), by IC70 in colony outgrowth” value (from here on “Sensitive (S)/Resistant (R), by IC70”) (LXFA629) of the same compound?
Its value is “R (BAL27862-resistant tumour cells are defined by IC70 values >600 nanomolar)”.

What about the “Sensitive (S)/Resistant (R), by IC70” value (GXF251) of the same compound?
Its value is “S”.

What about the “Sensitive (S)/Resistant (R), by IC70” value (GXF97) of the same compound?
Its value is “R (BAL27862-resistant tumour cells are defined by IC70 values >600 nanomolar)”.

And the “HeLa cell number and fraction of cells with a normal phenotype after pooled BUBR1 siRNA” value (HeLa cells)?
Its value is “BUBR1 was required for optimal effects”.
